Reference: article PMC5215716, “A Target-Based Whole Cell Screen Approach To Identify Potential Inhibitors of Mycobacterium tuberculosis Signal Peptidase” (ACS Infectious Diseases, 2016)
≈ marks a conversion by molar mass, not a printed value.

Experiments:
[1] = system: M. tuberculosis strain SPAM13C (LepB-UE); experiment: microbe, parasite or virus in culture; format: cell-based, Mycobacterium tuberculosis; details: for MIC: Mycobacterium tuberculosis, 120 h, read-out: LepB-UE MIC; for MIC / LepB-UE MIC: M. tuberculosis strain SPAM13C, OD590 after 5 days at 37 °C, average ± SD of at least two experiments, b = single value; for Change in potency against LepB-UE compared to compound 1: decrease in potency relative to compound 1
[2] = system: wild-type (wt) M. tuberculosis strain; experiment: microbe, parasite or virus in culture; format: cell-based, Mycobacterium tuberculosis; details: […], OD590 after 5 days at 37 °C, average ± SD of at least two experiments, b = single value; for MIC: Mycobacterium tuberculosis, 120 h, read-out: WT MIC
in vitro = format: cell-based, African green monkey; details: African green monkey
Experimental: (§1) Cytotoxicity against African green monkey adult kidney cell (Vero cells) was determined as previously described using CellTiter-Glo reagent.[44] The concentration causing 50% growth inhibition (IC50) was calculated by fitting the inhibition curves using the Levenberg–Marquardt algorithm.

Vero cells = experiment: in vitro; format: cell-based, African green monkey; details: relative to compound 16
Experimental: as §1

LepB = biological target: T1, LepB (Mycobacterium tuberculosis, UniProt P9WKA1); experiment: LepB membrane assay (fluorogenic signal peptide cleavage by cell membrane fraction); format: biochemical; details: M. tuberculosis H37Rv cell membrane fraction, 2 μM peptide substrate, 4 h at 37 °C
T1 construct: we used purified membrane fractions to develop an in vitro assay for signal peptide cleavage; host or cells: γ-irradiated whole M. tuberculosis H37Rv; Triton X-114 membrane fraction
T1 sequence (P9WKA1 1-294): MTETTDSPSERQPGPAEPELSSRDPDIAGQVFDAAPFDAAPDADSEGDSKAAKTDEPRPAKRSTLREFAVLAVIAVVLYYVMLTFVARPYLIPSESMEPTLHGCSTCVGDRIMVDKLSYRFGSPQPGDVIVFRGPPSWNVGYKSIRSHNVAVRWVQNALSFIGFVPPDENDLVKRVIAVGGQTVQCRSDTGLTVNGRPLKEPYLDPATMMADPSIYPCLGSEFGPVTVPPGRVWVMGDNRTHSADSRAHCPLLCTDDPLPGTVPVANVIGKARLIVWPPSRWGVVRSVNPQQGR

| Structure (SMILES) | MIC [1] | MIC [2] | CC50 (in vitro) | Decrease in selectivity compared to 16 (Vero cells) | IC50 (LepB) | LepB-UE MIC [1] | WT MIC [2] | Change in potency against LepB-UE compared to compound 1 [1] |
| --- | --- | --- | --- | --- | --- | --- | --- | --- |
| COc1ccc([N+](=O)[O-])cc1/C=N/NC(=N)c1ccccn1 [Compound 33] | > 200 µM | > 200 µM | > 100 µM | 15 fold |  |  |  |  |
| N=C(N/N=C/c1cccc([N+](=O)[O-])c1)c1ccccn1 [Compound 34] | 106 µM (≈ 28.5 µg/mL) | > 200 µM | > 100 µM | 15 fold |  |  |  |  |
| COc1ccc(CC(=O)N/N=C(\C)c2ccccn2)cc1OC [Compound 36] | 26 ± 1 µM (≈ 8.15 µg/mL) | 53 ± 2 µM (≈ 16.6 µg/mL) | 12 µM |  | > 200 µM |  |  |  |
| C/C(=N\NC(=O)C1CCCN(S(=O)(=O)c2ccccc2)C1)c1ccccn1 (stereo not shown) [Compound 38] | 3.5 to 15 µM (≈ 1.35 to 5.8 µg/mL) | 17 ± 5 µM (≈ 6.57 µg/mL) | 9.5 µM |  | 180 µM | 4.9 ± 0.2 µM |  |  |
| C/C(=N\NC(=O)c1ccoc1C)c1ccccn1 [Compound 39] | 2 to 2.5 µM (≈ 0.487 to 0.608 µg/mL) | < 10 µM | 3.3 µM |  | > 200 µM | 2.5 ± 0.2 µM | 5.5 ± 1.4 µM |  |
| C/C(=N\NC(=O)C1CC1)c1ccccn1 [Compound 40] |  | 42 ± 15 µM (≈ 8.54 µg/mL) | 75 µM |  | > 200 µM | 15 ± 1 µM |  |  |
| C/C(=N\NS(=O)(=O)c1ccccc1)c1ccccn1 [Compound 42] | 48 µM (≈ 13.2 µg/mL) | 94 µM (≈ 25.9 µg/mL) | > 100 µM |  | 34 µM |  |  | 16 fold |
| Cc1cc(C)nc(-n2nc(C)cc2C)n1 [Compound 43] | 48 ± 2 µM (≈ 9.71 µg/mL) | 115 ± 23 µM (≈ 23.3 µg/mL) | > 100 µM |  | > 200 µM |  |  |  |
| Cc1cc(C)nc(-n2nc(C)c(Oc3ccccc3O)c2C)n1 [Compound 44] | 95 ± 7 µM (≈ 29.5 µg/mL) | > 200 µM | > 100 µM |  | > 200 µM |  |  |  |
| CC1=NN(c2nc(C)cc(C)n2)C(=O)C1C (stereo not shown) [Compound 46] | 90 ± 28 µM (≈ 19.6 µg/mL) | > 200 µM | > 100 µM |  | > 200 µM |  |  |  |
| Cc1cc(C)nc(-n2nc(C)c(Cc3ccccc3C)c2O)n1 [Compound 47] | 61 ± 7 µM (≈ 18.8 µg/mL) | > 200 µM | > 100 µM |  | > 200 µM |  |  |  |
| Cc1cc(C)nc(NNC(=O)c2ccccn2)n1 [Compound 57] | 3.5 to 15 µM (≈ 0.851 to 3.65 µg/mL) | 25 µM (≈ 6.08 µg/mL) | 32 µM |  | 64 µM | 3.9 ± 1.3 µM | 25 ± 4 µM | activity similar to that of 1 |
